Test results from patent US9458128B2, “Catechol O-methyltransferase activity inhibiting compounds” (Orion Corporation, priority 2012, dated 2016).

Tested on: not listed separately
Assay: Determination of levodopa concentration in rat plasma
Format: in vivo
Settings: entacapone = 1.00, adult male Wistar rats, COMT inhibitor dosed orally with levodopa+carbidopa
Experimental: Levodopa concentration in rat plasma was determined substantially as described in e.g. Kim, T. K. et al. European Journal of Pharmaceutical Sciences, 38 (2009) 525. The studies were performed in adult male Wistar rats. The COMT inhibitor was dosed orally over a range of doses and several sampling time points were chosen between 0 min and 300 min after drug administration (levodopa+carbidopa and COMT inhibitor). Blood samples were collected by cardiac puncture under CO2 anaesthesia into pre-cooled K2EDTA tubes and kept on ice until the separation of plasma by centrifugation. For levodopa analysis, 75 μl of separated plasma was pipetted without delay into pre-cooled polypropylene tubes containing a conserving agent. All the samples were stored at −80° C. nominal until analyzed. Plasma levels of levodopa were determined by LC-MS/MS (or HPLC). Standard pharmacokinetic methods were used to evaluate the concentration—time data by non-compartmental analysis modeling. The analyses were performed using WinNonlin® Professional v. 5.0.1.

Row | SMILES | Relative levodopa concentration
1 | N#Cc1cc(O)c(O)c(C#N)c1Br [Example 1, 2-Bromo-4,5-dihydroxyisophthalonitrile] | 1.65
2 | N#Cc1cc(O)c(O)c(C#N)c1-c1ccco1 [Example 6, 2-(Furan-2-yl)-4,5-dihydroxyisophthalonitrile] | 1.64
3 | CC(C)S(=O)(=O)c1ccc(-c2c(C#N)cc(O)c(O)c2C#N)cc1 [Example 23, 3,4-Dihydroxy-4′-(isopropylsulfonyl)biphenyl-2,6-dicarbonitrile] | 1.34
4 | CC(C)(C)/C=C/c1c(C#N)cc(O)c(O)c1C#N [Example 28, (E)-2-(3,3-Dimethylbut-1-enyl)-4,5-dihydroxyisophthalonitrile] | 2.69
5 | N#Cc1cc(O)c(O)c(C#N)c1Cc1ccc(F)cc1 [Example 55, 2-(4-Fluorobenzyl)-4,5-dihydroxyisophthalonitrile] | 1.31
6 | N#Cc1cc(O)c(O)c(C#N)c1Cc1ccccc1F [Example 60, 2-(2-Fluorobenzyl)-4,5-dihydroxyisophthalonitrile] | 1.13
7 | CC(C)=Cc1c(C#N)cc(O)c(O)c1C#N [Example 87, 4,5-Dihydroxy-2-(2-methylprop-1-enyl)isophthalonitrile] | 1.51
8 | C=CCc1c(C#N)cc(O)c(O)c1C#N [Example 92, 2-Allyl-4,5-dihydroxyisophthalonitrile] | 1.42

Target: T1, recombinant human soluble COMT (S-COMT) (Homo sapiens, UniProt P21964)
T1 sequence (P21964 1-221 isoform P21964-2): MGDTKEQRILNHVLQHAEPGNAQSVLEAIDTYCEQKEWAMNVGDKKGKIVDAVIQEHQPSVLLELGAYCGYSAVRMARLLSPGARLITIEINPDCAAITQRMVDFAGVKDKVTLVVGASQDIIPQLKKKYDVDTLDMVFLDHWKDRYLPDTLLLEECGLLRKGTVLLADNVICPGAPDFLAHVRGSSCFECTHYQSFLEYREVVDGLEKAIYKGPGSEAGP
Assay: COMT inhibiting activity in vitro, Assay 1 (fluorescence plate reader)
Format: biochemical
Settings: Assay 1: 12 nM S-COMT, 60 min preincubation at 37° C., substrate esculetin, Morrison equation
Experimental: (§1) The inhibitory potency was determined by measuring recombinant human soluble COMT (S-COMT) activity at various compound concentrations. COMT activity measurements were performed according to the method published in Kurkela, M. et al. Analytical Biochemistry, 331 (2004) 198 with slight modifications according to Assay 1 or Assay 2 described below.
Recombinant human S-COMT (12 nM) was preincubated with the COMT inhibitor and 400 μM S-adenosyl-L-methionine in 100 mM Na2HPO4 buffer, pH 7.4, containing 5 mM MgCl2 for 60 min at 37° C. The reaction was started with the addition of the substrate esculetin for a final concentration of […] and the production of O-methylated esculetin was followed with the FlexStation fluorescence plate reader ([…], USA) using excitation at 355 nm and emission at 460 nm. The inhibitor dissociation constant, Ki, of the studied compounds was calculated using the Morrison equation, which takes the tight binding inhibition into account (Copeland, R. A. Evaluation of Enzyme Inhibitors in Drug Discovery. A Guide for Medicinal Chemists and Pharmacologists, John Wiley & Sons, Inc., Hoboken, N.J., 2005, pp. 185-187):
[formula] wherein v0 and vi are the reaction velocities in the absence and presence, respectively, of the inhibitor, E is the active enzyme concentration, and I is the inhibitor concentration. The data were analyzed with GraphPad Prism version 4.00 software (GraphPad Software, San Diego, Calif., USA). Assay 2

Row | Ki [nM] | SMILES
9 | 1.5 | N#Cc1cc(O)c(O)c(C#N)c1-c1ccc2cc(O)ccc2c1 [Example 122, 4,5-Dihydroxy-2-(6-hydroxynaphthalen-2-yl)isophthalonitrile]
10 | 3.2 | N#Cc1cc(O)c(O)c(C#N)c1CCCO [Example 187, 4,5-Dihydroxy-2-(3-hydroxypropyl)isophthalonitrile]
11 | 2.9 | N#Cc1cc(O)c(O)c(C#N)c1N1CCOCC1 [Example 191, 4,5-Dihydroxy-2-morpholinoisophthalonitrile]

Continued, compound first:

Row | SMILES | Ki [nM]
12 | N#Cc1cc(O)c(O)c(C#N)c1-c1cccs1 [Example 5, 4,5-Dihydroxy-2-(thiophen-2-yl)isophthalonitrile] | 0.84
13 | CC(C)S(=O)(=O)c1ccc(-c2c(C#N)cc(O)c(O)c2C#N)cc1 [Example 23, 3,4-Dihydroxy-4′-(isopropylsulfonyl)biphenyl-2,6-dicarbonitrile] | 0.19
14 | N#Cc1cc(O)c(O)c(C#N)c1-c1cccc(C(=O)O)c1 [Example 26, 2′,6′-Dicyano-3′,4′-dihydroxybiphenyl-3-carboxylic acid] | 0.12
15 | N#Cc1cc(O)c(O)c(C#N)c1-c1ccc(CCC(=O)O)cc1 [Example 32, 3-(2′,6′-Dicyano-3′,4′-dihydroxybiphenyl-4-yl)propanoic acid] | 2
16 | N#Cc1cc(O)c(O)c(C#N)c1-c1ccc(Cl)c(Cl)c1 [Example 38, 3′,4′-Dichloro-3,4-dihydroxybiphenyl-2,6-dicarbonitrile] | 9.5
17 | N#Cc1cc(O)c(O)c(C#N)c1Cc1ccccc1 [Example 45, 2-Benzyl-4,5-dihydroxyisophthalonitrile] | 8.2
18 | N#Cc1cc(O)c(O)c(C#N)c1C1=CCOCC1 [Example 74, 2-(3,6-Dihydro-2H-pyran-4-yl)-4,5-dihydroxyisophthalonitrile] | 2
19 | N#Cc1cc(O)c(O)c(C#N)c1/C=C/C(=O)O [Example 76, (E)-3-(2,6-Dicyano-3,4-dihydroxyphenyl)acrylic acid] | 3.3
20 | C=Cc1c(C#N)cc(O)c(O)c1C#N [Example 89, 4,5-Dihydroxy-2-vinylisophthalonitrile] | 2
21 | CCN(CC)C(=O)c1cccc(-c2c(C#N)cc(O)c(O)c2C#N)c1 [Example 100, 2′,6′-Dicyano-N,N-diethyl-3′,4′-dihydroxybiphenyl-3-carboxamide] | 6.5
22 | Cc1ccc(/C=C/c2c(C#N)cc(O)c(O)c2C#N)cc1 [Example 121, (E)-4,5-Dihydroxy-2-(4-methylstyryl)isophthalonitrile] | 18

Target: T1, recombinant human soluble COMT (S-COMT)
Assay: COMT inhibiting activity in vitro, Assay 2 (HPLC with fluorescence detection)
Format: biochemical
Settings: Assay 2: 0.8 nM S-COMT, esculetin 0.5 μM, Morrison equation
Experimental: as §1
Recombinant human S-COMT (0.8 nM) was incubated with the COMT inhibitor and 200 μM S-adenosyl-L-methionine in 100 mM Na2HPO4 buffer, pH 7.4, containing 5 mM MgCl2 for 30 min at 37° C. The reaction was started with the addition of esculetin for a final concentration of 0.5 μM and the reaction mixture with total volume of 200 μl was incubated for 30 min at 37° C. The reaction was stopped with 20 μl of 4 M HClO4 and the precipitated protein was removed by Sirocco protein precipitation plate (centrifuged at 4° C. for 10 min at 3000 g). O-Methylated esculetin was detected by Waters HT Alliance HPLC setup with Waters 474 fluorescence detector (Ex […], Em 460 nm, Gain 100). The analytes were separated isocratically using 0.1 M Na2HPO4, 20 mM citric acid, 0.15 mM EDTA, pH 3.2, in 40% methanol as mobile phase and Waters Spherisorb ODS2 (3 μm, 4.6 mm×100 mm) column. O-Methylated esculetin concentrations were calculated based on the standard curve and the Ki values were calculated using the Morrison equation as in Assay 1.

Row | Ki [nM] | SMILES
23 | 0.33 | N#Cc1cc(O)c(O)c(C#N)c1Cc1ccc(C(=O)O)cc1 [Example 118, 4-(2,6-Dicyano-3,4-dihydroxybenzyl)benzoic acid]
24 | 0.7 | COC(=O)CCc1ccc(Sc2c(C#N)cc(O)c(O)c2C#N)cc1 [Example 144, Methyl 3-(4-(2,6-dicyano-3,4-dihydroxyphenylthio)phenyl)propanoate]
25 | 1.6 | Cc1ccc(-c2c(C#N)cc(O)c(O)c2C#N)cc1 [Example 152, 3,4-Dihydroxy-4′-methylbiphenyl-2,6-dicarbonitrile]
26 | 0.4 | N#Cc1cc(O)c(O)c(C#N)c1Cc1ccc(CCC(=O)O)cc1 [Example 153, 3-(4-(2,6-Dicyano-3,4-dihydroxybenzyl)phenyl)propanoic acid]
27 | 1.3 | N#Cc1cc(O)c(O)c(C#N)c1Cc1ccc(C(F)(F)F)cc1 [Example 154, 4,5-Dihydroxy-2-(4-(trifluoromethyl)benzyl)isophthalonitrile]
28 | 0.26 | Cc1ccc([S+]([O-])c2c(C#N)cc(O)c(O)c2C#N)cc1 (stereo not shown) [Example 156, 4,5-Dihydroxy-2-(p-tolylsulfinyl)isophthalonitrile]
29 | 0.53 | CCc1ccc(Sc2c(C#N)cc(O)c(O)c2C#N)cc1 [Example 158, 2-(4-Ethylphenylthio)-4,5-dihydroxyisophthalonitrile]
30 | 0.94 | N#Cc1cc(O)c(O)c(C#N)c1Sc1ccc(Cl)cc1 [Example 159, 2-(4-Chlorophenylthio)-4,5-dihydroxyisophthalonitrile]
31 | 0.7 | Cc1ccccc1Sc1c(C#N)cc(O)c(O)c1C#N [Example 160, 4,5-Dihydroxy-2-(o-tolylthio)isophthalonitrile]
32 | 0.3 | COC(=O)c1ccc(Sc2c(C#N)cc(O)c(O)c2C#N)cc1 [Example 161, Methyl 4-(2,6-dicyano-3,4-dihydroxyphenylthio)benzoate]
33 | 0.2 | N#Cc1cc(O)c(O)c(C#N)c1Sc1ccc(CC(=O)O)cc1 [Example 164, 2-(4-(2,6-Dicyano-3,4-dihydroxyphenylthio)phenyl)acetic acid]
34 | 0.3 | COc1ccc(Sc2c(C#N)cc(O)c(O)c2C#N)cc1 [Example 167, 4,5-Dihydroxy-2-(4-methoxyphenylthio)isophthalonitrile]
35 | 0.9 | N#Cc1cc(O)c(O)c(C#N)c1Sc1ccncc1 [Example 171, 4,5-Dihydroxy-2-(pyridin-4-ylthio)isophthalonitrile]
36 | 0.2 | N#Cc1cc(O)c(O)c(C#N)c1Sc1cccc(C(=O)O)c1 [Example 172, 3-(2,6-Dicyano-3,4-dihydroxyphenylthio)benzoic acid]
37 | 0.5 | N#Cc1cc(O)c(O)c(C#N)c1Sc1ccc2ccccc2c1 [Example 174, 4,5-Dihydroxy-2-(naphthalen-2-ylthio)isophthalonitrile]
38 | 0.8 | CC(=O)c1ccc(Oc2c(C#N)cc(O)c(O)c2C#N)cc1 [Example 177, 2-(4-Acetylphenoxy)-4,5-dihydroxyisophthalonitrile]
39 | 0.5 | Cc1ccc(Oc2c(C#N)cc(O)c(O)c2C#N)c(C)c1 [Example 180, 2-(2,4-Dimethylphenoxy)-4,5-dihydroxyisophthalonitrile]
40 | 0.1 | Cc1ccc(S(=O)(=O)c2c(C#N)cc(O)c(O)c2C#N)cc1 [Example 209, 4,5-Dihydroxy-2-tosylisophthalonitrile]
